From a melting point compilation (Tetko et al.; mined from patent text by program, amines drawn as free bases though some values may be those of a salt)

Work on Cc1nc(-n2cc(Cl)ccc2=O)sc1C(=O)NCc1ccccc1 yielded a melting point of 173 to 174 °C.
Compound C=C=Cn1[nH]c2ccccc2c1=O has a melting point of 126 to 130 °C.
O=S1(=O)c2ccccc2-c2ccc(F)cc21 gave a melting point of 229 to 233 °C.
For Cc1cc(CCCCCCCc2ccc(C3=NCCO3)cc2)on1, the melting point was 66 to 67 °C.
With CCOC(=O)CC(=O)c1ccc(Br)cc1Cl the melting point was 34 °C.
In the case of CC(=O)Oc1cccc2c1NC(O)C1CCCN1C2=O (stereo not given), the melting point is reported as 143 to 145 °C.
In the case of CCOC(=O)Nc1ccc(NCc2coc3ccc(F)cc23)cc1N, the melting point is reported as 150 to 151 °C.
Compound CCCn1c(=O)c2[nH]c(-c3cc(C)n(CC(=O)Nc4ccc(Br)cc4)n3)nc2n(CCC)c1=O has a melting point of 270 to 273 °C.
With CCOC(=O)CSc1nc(Cl)cc(Nc2ccccc2)n1 the melting point was 109 to 114 °C.
CC(C)(C)OC(=O)NCCCc1ccc(OCCC2Oc3ccccc3N(Cc3cccc(Cl)c3)C2=O)cc1 (stereo not given) showed a melting point of 75 to 81 °C.
Compound O=C(NCc1ccncc1)Nc1cccc2ccccc12 has a melting point of 178 °C.
NN(Cc1ccc(Cl)cc1)c1ccc(OCc2ccc3ccccc3n2)cc1 gave a melting point of 130 °C.
Compound COc1ccc(C)c(OC(F)C(=O)c2ccccc2)c1 (stereo not given) has a melting point of 57 to 58 °C.
For CN(C(=O)CNC(=O)OC(C)(C)C)c1ccc(OCC(=O)O)cc1, the melting point was 146 to 155 °C.
CCN1CCc2cc3ccccc3n2CC1 gave a melting point of 44 to 46 °C.
Compound Cc1ccc(S(=O)(=O)C2=CC3C=CC2N3C(=O)OC(C)(C)C)cc1 (stereo not given) has a melting point of 94 to 99 °C.
Compound O=C(O)c1cc(Cl)cc2c1NCCO2 has a melting point of 209 to 210 °C.
Compound COc1ccccc1N1CCN(Cc2ccc(NC(=O)C3=Cc4cc(-c5ccc(C)cc5)ccc4CC3)cc2)CC1 has a melting point of 202 to 205 °C.
Cn1cc(C(=O)NS(=O)(=O)c2cccs2)cn1 showed a melting point of 174 to 180 °C.
With Cc1c(C2=CCC(c3ccccc3)(N(C)C)CC2)n(CC2CO2)c2ccccc12 (stereo not given) the melting point was 147 to 150 °C.
Compound CC(C)OP(=O)(/C=C/CCn1cnc2c(N)ncnc21)OC(C)C has a melting point of 121 to 122 °C.
CC(C)=CCC[C@H](C)CC(=NO)C(C[C@@H](C)CCC=C(C)C)=NO gave a melting point of 131 to 132 °C.
For O=c1[nH]nc(Cl)cc1Br, the melting point was 205 to 206 °C.
COc1ccccc1Cn1c(=O)c2c(Cl)cc(N3CCNCC3)cc2n(Cc2ccccc2)c1=O gave a melting point of 83 to 87 °C.
For COC(=O)CCCc1cc2nc(Cl)ccc2n1S(=O)(=O)c1ccc(N2CCOCC2)cc1, the melting point was 110 °C.
For O=C(O)CCc1c(-c2ccccc2)noc1-c1ccccc1, the melting point was 152 to 153 °C.
CN1C(=O)C2(COc3cc4c(cc32)OCCO4)c2ccccc21 (stereo not given) showed a melting point of 152 to 154 °C.
With CCOC(=O)c1ncc2[nH]c3ccc(I)cc3c2n1 the melting point was 264 to 266 °C.
With CN(C)CCOc1ccc(-c2cccc(N)n2)c2ccccc12 the melting point was 98 to 106 °C.
O=C(CON=C(C(=O)O)c1csc(NC(=O)C(F)(F)F)n1)OC(c1ccccc1)c1ccccc1 gave a melting point of 178 to 180 °C.
Compound CN(C)c1ccc2c(c1)C(=O)N(c1ccc(CCCC(=O)OC(C)(C)C)cc1)C2 has a melting point of 115 to 116 °C.
For O=C1Nc2cc(F)ccc2C1c1ncnc2nn(C3CCCCC3)cc12 (stereo not given), the melting point was 297 to 300 °C.
Work on N#Cc1c(O)nsc1S(=O)(=O)Cc1ccccc1 yielded a melting point of 181 to 183 °C.
For OC1(C#Cc2cc(Cl)ccc2Cl)CN2CCC1CC2 (stereo not given), the melting point was 197 to 200 °C.
With CCCCCCCCCCCc1cc2ccc(C(=O)OC)cc2[nH]1 the melting point was 84 to 86 °C.
With O=C(CNc1ccc2[nH]c(=O)sc2c1)N1CCC(Cc2ccc(F)cc2)CC1 the melting point was 149 to 155 °C.
For CN(C=O)c1cc(F)ccc1C(=O)COC(=O)c1ccccc1, the melting point was 93 to 95 °C.
Compound CC1Cc2cc(Cl)ccc2C(c2ccc([N+](=O)[O-])cc2)O1 (stereo not given) has a melting point of 118 to 120 °C.
C=C(C)C(C(=O)OCC(Cl)(Cl)Cl)N1C(=O)C(NC(=O)Cc2ccccc2)C1SSc1nc2ccccc2s1 (stereo not given) gave a melting point of 133 to 134 °C.
CNc1c(C)cc([N+](=O)[O-])cc1C gave a melting point of 99 °C.
Cc1ccc2c3ccccc3n(CC(O)CN3CCNCC3c3ccc(Cl)c(Cl)c3)c2c1 (stereo not given) gave a melting point of 140 °C.
CCOC(=O)Cn1c2ccccc2c2sccc(=O)c21 showed a melting point of 163 to 165 °C.
Compound CC(C)(C)OC(=O)N[C@@H]1C(=O)N(OCc2ccccc2)C1(C)C has a melting point of 121 to 122 °C.
COC(C)(C)O[C@H]1C(=O)N[C@H]1c1ccccc1 showed a melting point of 136 to 137 °C.
In the case of O=C(O)c1cn(C2CC2)c2c(C(F)(F)F)c(N3CCC(c4ccccn4)C3)c(F)cc2c1=O (stereo not given), the melting point is reported as 210 to 212 °C.
For CCC(CC)=NOC(=O)c1cc(-n2c(=O)cc(C(F)(F)F)n(C)c2=O)c(F)cc1Cl, the melting point was 128 to 130 °C.
In the case of O=c1cc(-c2ccc(CO)cc2)oc2ccc(O)cc12, the melting point is reported as 262 to 265 °C.
For CC(=O)Nc1c(C)cc2c(nc3n2CCC3)c1[N+](=O)[O-], the melting point was 198 °C.
With COc1ccccc1Oc1c(N)nc(N2CCOCC2)nc1OCCO the melting point was 136 to 138 °C.
Nc1ccc(C(F)(F)F)cc1C(=O)O showed a melting point of 191 to 192 °C.
CC(=O)OC1CSC(Oc2ccc(-c3ccc(Cl)nc3)nc2)C(OC(C)=O)C1OC(C)=O (stereo not given) showed a melting point of 204 °C.
O=C(Nc1ccc(F)cc1)OC1CCCNC1 (stereo not given) gave a melting point of 147 to 148 °C.
Cc1oc2c(C)c(C)c(N3Cc4ccccc4C3)c(C)c2c1-c1ccc(C(C)C)cc1 gave a melting point of 126 to 129 °C.
COc1cc(C)c(C(=O)c2c(C(F)(F)F)cc(Cl)nc2Cl)c(OC)c1OC gave a melting point of 81 to 83 °C.
With CN1CCN(C2=Nc3cc(Br)ccc3-n3ccc4cc(Br)cc2c43)CC1 the melting point was 158 to 159 °C.
In the case of Cc1cn(-c2ccc(N)c(C(F)(F)F)c2)c(C)n1, the melting point is reported as 126 to 127 °C.
In the case of CN(C)C(=O)C1CN(C)c2nc3cc(F)c(F)cc3cc2C1=O (stereo not given), the melting point is reported as 206 °C.
For Cc1nnc2c(-c3cccc(C(F)(F)F)c3)cncn12, the melting point was 157 to 159 °C.
With COc1cc(OC)c(-c2cc3ccccc3n2C)cc1C=CC(=O)c1ccc(S(=O)(=O)NCCN2CCOCC2)cc1 the melting point was 167 to 168 °C.
In the case of CN(Cc1ccncc1)Cc1ccc(CCC(=O)Nc2ccc(-c3ccc(Cl)cc3)cc2)cc1, the melting point is reported as 102 °C.
FC(F)(F)c1ccc(Oc2ccc3nnsc3c2)c(Cl)c1 gave a melting point of 72 to 73 °C.
Work on COc1ccc(CNc2ccnc(Cl)c2C(=O)O)cc1Cl yielded a melting point of 228 to 230 °C.
In the case of CN(CCc1ccccc1)C(=O)C(O)C(O)c1ccccc1 (stereo not given), the melting point is reported as 145 to 147 °C.
In the case of CC(C)c1ccc2nc[nH]c(=O)c2c1, the melting point is reported as 147 °C.
COC(=O)c1c(Cl)cc(Cl)cc1NC(=O)CSc1ccc(NC(=S)NCc2ccccc2)cc1 showed a melting point of 152 to 155 °C.
With COC(=O)c1sc2cc(CO)ccc2c1C the melting point was 121 to 123 °C.
For CC(=O)c1ccc(Nc2nc(N)c(C(=O)c3ccccc3[N+](=O)[O-])s2)cc1, the melting point was 264 to 265 °C.
Compound CCCCNC(=O)c1ccc(Cl)c(-n2nc(CCCC)n(Cc3ccc(Br)cc3F)c2=O)c1 has a melting point of 114 to 116 °C.
O=S1c2ccc(F)cc2CCc2ccc(CO)cc21 (stereo not given) gave a melting point of 181 to 183 °C.
With COc1cc(OC)nc(NC(=O)NS(=O)(=O)c2ncccc2OCCCl)n1 the melting point was 156 to 158 °C.
Work on CCS(=O)(=O)C1(C(O)(Cn2cncn2)c2ccc(Cl)cc2)CC1 (stereo not given) yielded a melting point of 215 °C.
CCNS(=O)(=O)CC(=O)C1=CNC(C)=C(C(=O)OC)C1c1cccc([N+](=O)[O-])c1 (stereo not given) gave a melting point of 185 to 187 °C.
With CCc1nn(CCOP(=O)(O)O)c(CC)c1Oc1cc(C#N)cc(C#N)c1 the melting point was 198 to 199 °C.
In the case of Cc1c(N2C(=O)C[C@@](O)(C3CC3)[C@@H]2C)ccc(C#N)c1Cl, the melting point is reported as 231 to 236 °C.
Compound C=C1CCc2c(F)c(F)cc3c(=O)c(C(=O)OCC)cn1c23 has a melting point of 272 to 274 °C.
COc1ccc(I)c(CC(=O)N(C)C)c1 gave a melting point of 86 to 89 °C.
For CC1(c2cccc(NS(C)(=O)=O)c2)C2CN(C(=O)CCc3cccs3)CC21 (stereo not given), the melting point was 184 °C.
Work on N#CCc1nn2c(-c3cccc(C(F)(F)F)c3)ccnc2c1C#N yielded a melting point of 180 to 181 °C.
Work on Nc1c(Oc2ccc(F)c(C(F)(F)F)c2)nc(Br)nc1Oc1ccc(F)c(C(F)(F)F)c1 yielded a melting point of 184 to 186 °C.
For CC(C)(C)c1cc(/C=C/C(=O)CC(=O)/C=C/c2cc(C(C)(C)C)c(O)c(C(C)(C)C)c2)cc(C(C)(C)C)c1O, the melting point was 192 to 196 °C.
With COC(=O)c1cc(C)c(C(OC(=O)C(Cc2ccccc2)NS(=O)(=O)c2ccc(C)cc2)c2cc(-n3ccnc3)ccc2C)c(C)c1 (stereo not given) the melting point was 111 to 112 °C.
For COc1cc(O)c(C(=O)C=Cc2ccc(Cl)cc2)c(OC)c1, the melting point was 167 °C.
Compound CCOC(=O)c1csc(Cc2ccc([N+](=O)[O-])cc2)n1 has a melting point of 122 to 123 °C.
For O=C1CCC(=O)N1c1cccc2ccccc12, the melting point was 154 °C.
For COc1ccc(CCCC(=O)O)cc1NC(=O)C[C@H]1O[C@H](c2cccc(OC)c2OC)c2cc(Cl)ccc2N(CC(C)(C)CO)C1=O, the melting point was 119 to 121 °C.
Work on Cc1c(C(=O)NCC(=O)O)oc2cc(-c3ccc(Cn4c(C)nc5ccccc54)cc3)ccc12 yielded a melting point of 248 to 250 °C.
For CCOC1C(NC(C)=O)CC(OC)OC1C (stereo not given), the melting point was 199 to 200 °C.
CCOC(=O)c1ccoc1COc1cc(-c2nn(C)c(OC(F)F)c2Cl)c(F)cc1Cl gave a melting point of 59 to 61 °C.
Work on CCOC(=O)C(=O)Nc1cc2c3c(cccc3c1[N+](=O)[O-])C(=O)OC2=O yielded a melting point of 221 to 222 °C.
With Fc1ccc(-c2ncc(Br)cn2)cc1F the melting point was 148 °C.
O=C(c1cc(C(F)(F)F)cc(C(F)(F)F)c1)N1CCNCCC1c1ccccc1 (stereo not given) gave a melting point of 151 to 153 °C.
Compound O=C1CCCc2onc(-c3ccccc3F)c21 has a melting point of 82 to 83 °C.
Compound O=C(O)c1cccc2oc(-c3ccccc3OCc3ccccc3)nc12 has a melting point of 103 to 104 °C.
For O=C(O)CCCNc1cc(Oc2ccc(C(F)(F)F)cc2Cl)ccc1[N+](=O)[O-], the melting point was 126 to 127 °C.
For Oc1cc2c(cc1C13CC4CC(CC(C4)C1)C3)CCCC2, the melting point was 169 to 170 °C.
CCOC(OCC)c1c(C#N)cnn1-c1cc(SC)n(C)n1 gave a melting point of 154 to 158 °C.
c1ccc(N2CCN(Cc3n[nH]c4ccccc34)CC2)nc1 showed a melting point of 148 to 150 °C.
Work on O=C1CSc2c(ccc3ccccc23)N1 yielded a melting point of 211 to 212 °C.
COc1ccc2cc(C(C)C(=O)OCC(=O)NCCCO[N+](=O)[O-])ccc2c1 (stereo not given) gave a melting point of 51 to 53 °C.
In the case of CC(C)(CCCC(=O)O)c1ccc2c(c1)C(=O)c1cc(C(C)(C)CCCC(=O)O)ccc1C2=O, the melting point is reported as 145 to 147 °C.
